Reference: patent US11912650B2, “Bakuchiol derivatives, pharmaceutically acceptable salts thereof, and preparation method and use of the same” (priority 2020, dated 2024)
Values after ≈ are worked out from the molar mass of the structure shown. Read-outs that look alike come from different tables or passages of the source.

Tests used:
E. coli ATCC25922 = test: Antibacterial activity assay (broth dilution MIC); format: cell-based; conditions: Escherichia coli, 37° C., 24 h, compounds 38, 44-45, 58-61, 63-64 with 0.05% Tween 80
Experimental: (§1) Antibacterial activity assay. The antibacterial activities of all the compounds were determined according to a broth dilution method specified in Clinical and Laboratory Standards Institute (CLSI) guidelines. Bacterial cells were inoculated on a Mueller-Hinton agar (MHA) plate for overnight culture, and the concentration of the bacterial cells was adjusted to about 1×10^6 colony-forming units (CFU)/mL with phosphate buffered saline (PBS). First, a 1000 μg/mL stock solution (a final concentration of dimethyl sulfoxide (DMSO) was ≤2%) was prepared by dissolving a sample in DMSO/H2O. Then, the stock solution was diluted with Mueller-Hinton Broth (MHB) to an initial concentration of 100 μg/mL, and the sample solution (100 μL) was subjected to two-fold gradient dilution with MHB in a 96-well plate, to obtain 100 μg/mL to 0.78 μg/mL serial dilutions. Then, a bacterial suspension (100 μL) was added to each well of the 96-well plate and mixed with the test sample solution (100 μL). Among them, test systems for compounds 38, 44-45, 58-61 and 63-64 contained 0.05% of Tween 80. Finally, the 96-well plate was incubated at 37° C. for 24 hours. Absorbances at 600 nm at 0 and 24 h were measured. An minimum inhibitory concentration (MIC) value was defined as the lowest concentration where no visible bacterial growth occurred. All experiments were carried out in at least two duplicates, and biological repeatability could be achieved.

S. aureus ATCC29213 = test: Antibacterial activity assay (broth dilution MIC); format: cell-based; conditions: Staphylococcus aureus, 37° C., 24 h, compounds 38, 44-45, 58-61, 63-64 with 0.05% Tween 80
Experimental: as §1

MRSA N315 = test: Antibacterial activity assay (broth dilution MIC); format: cell-based, methicillin-resistant Staphylococcus aureus; conditions: Staphylococcus aureus, 37° C., 24 h, compounds 38, 44-45, 58-61, 63-64 with 0.05% Tween 80
Experimental: as §1

MRSA NCTC10442 = test: Antibacterial activity assay (broth dilution MIC); format: cell-based, methicillin-resistant Staphylococcus aureus; conditions: Staphylococcus aureus, 37° C., 24 h, compounds 38, 44-45, 58-61, 63-64 with 0.05% Tween 80
Experimental: as §1

Gram-positive bacteria = test: Antibacterial activity against Gram-positive bacteria (MIC summary); format: cell-based; conditions: 24 h, read-out: minimum inhibitory concentration (MIC) against Gram-positive bacteria
Experimental: as §1

Gram-negative bacteria = test: Antibacterial activity against Gram-negative bacteria (MIC summary); format: cell-based; conditions: 24 h; summary of tables 1 and 2
Experimental: as §1

Row | Compound | MIC (E. coli ATCC25922) [µg/mL] | MIC (S. aureus ATCC29213) [µg/mL] | MIC (MRSA N315) [µg/mL] | MIC (MRSA NCTC10442) [µg/mL] | MIC (Gram-positive bacteria; summary of tables 1 and 2) [µg/mL] | MIC (Gram-negative bacteria) [µg/mL] | MIC (Gram-positive bacteria) [µg/mL]
1 | C=C[C@@](C)(/C=C/c1ccc(OCCCCN(C)CCCN(C)C)cc1)CCC=C(C)C [Compound 26] | 3.12 (≈ 7.32 µM) | 1.56 (≈ 3.66 µM) | 1.56 (≈ 3.66 µM) | 3.12 (≈ 7.32 µM) | 0.39 to 3.12 (≈ 0.914 to 7.32 µM) | 1.56 to 3.12 (≈ 3.66 to 7.32 µM) | –
2 | C=C[C@@](C)(/C=C/c1ccc(OCCCCN(C)CCCN(C)CCCNC)cc1)CCC=C(C)C [Compound 27] | 1.56 (≈ 3.22 µM) | 1.56 (≈ 3.22 µM) | 0.78 (≈ 1.61 µM) | 1.56 (≈ 3.22 µM) | 0.39 to 3.12 (≈ 0.806 to 6.46 µM) | 1.56 to 3.12 (≈ 3.22 to 6.46 µM) | –
3 | C=C[C@](C)(/C=C/c1ccc(OCCCCNCCN(CCN)CCN)cc1)CCC=C(C)C [Compound 29] | 3.12 (≈ 6.84 µM) | 0.78 (≈ 1.71 µM) | 0.78 (≈ 1.71 µM) | 0.78 (≈ 1.71 µM) | 0.39 to 3.12 (≈ 0.854 to 6.84 µM) | 1.56 to 3.12 (≈ 3.42 to 6.84 µM) | –
4 | C=C[C@@](C)(/C=C/c1ccc(OCCCCN2CCCNCCNCCCNCC2)cc1)CCC=C(C)C [Compound 30] | 3.12 (≈ 6.12 µM) | 0.78 (≈ 1.53 µM) | 0.78 (≈ 1.53 µM) | 0.78 (≈ 1.53 µM) | 0.39 to 3.12 (≈ 0.763 to 6.12 µM) | 1.56 to 3.12 (≈ 3.05 to 6.12 µM) | –
5 | C=C[C@@](C)(/C=C/c1ccc(OCCCCN2CCNCCNCCNCCNCC2)cc1)CCC=C(C)C [Compound 31] | 6.25 (≈ 11.9 µM) | 1.56 (≈ 2.97 µM) | 0.78 (≈ 1.48 µM) | 1.56 (≈ 2.97 µM) | 0.39 to 3.12 (≈ 0.742 to 5.94 µM) | – | –
6 | C=C[C@@](C)(/C=C/c1ccc(OCCCCNC(=N)N)cc1)CCC=C(C)C [Compound 35] | 25 (≈ 67.6 µM) | 3.12 (≈ 8.46 µM) | 1.56 (≈ 4.22 µM) | 3.12 (≈ 8.46 µM) | 0.39 to 3.12 (≈ 1.06 to 8.46 µM) | – | –
7 | C=C[C@](C)(/C=C/c1ccc(OCC(=O)N[C@@H](CCCNC(=N)N)C(=O)OC)cc1)CCC=C(C)C [Compound 38] | 6.25 (≈ 12.9 µM) | 0.78 (≈ 1.61 µM) | 1.56 (≈ 3.22 µM) | 0.78 (≈ 1.61 µM) | – | – | 0.39 to 3.12 (≈ 0.805 to 6.45 µM)
8 | C=C[C@](C)(/C=C/c1ccc(OCC(=O)N[C@H](CCCNC(=N)N)C(N)=O)cc1)CCC=C(C)C [Compound 39] | 12.5 (≈ 26.6 µM) | 3.12 (≈ 6.65 µM) | 3.12 (≈ 6.65 µM) | 3.12 (≈ 6.65 µM) | – | – | 0.39 to 3.12 (≈ 0.83 to 6.65 µM)
9 | C=C[C@](C)(/C=C/c1ccc(OCC(=O)N[C@@H](Cc2c[nH]cn2)C(=O)OC)cc1)CCC=C(C)C [Compound 40] | > 100 | 6.25 (≈ 13.4 µM) | 6.25 (≈ 13.4 µM) | 6.25 (≈ 13.4 µM) | – | – | –
10 | C=C[C@](C)(/C=C/c1ccc(OCC(=O)N[C@@H](CCCNC(=N)N)C(=O)N[C@@H](CCCNC(=N)N)C(=O)OC)cc1)CCC=C(C)C [Compound 44] | 3.12 (≈ 4.88 µM) | 0.78 (≈ 1.22 µM) | 0.78 (≈ 1.22 µM) | 1.56 (≈ 2.43 µM) | – | 1.56 to 3.12 (≈ 2.43 to 4.88 µM) | 0.39 to 3.12 (≈ 0.609 to 4.88 µM)
11 | C=C[C@](C)(/C=C/c1ccc(OCC(=O)N[C@@H](CCCNC(=N)N)C(=O)N[C@@H](CCCNC(=N)N)C(=O)N[C@@H](CCCNC(=N)N)C(=O)OC)cc1)CCC=C(C)C [Compound 45] | 6.25 (≈ 7.84 µM) | 0.39 (≈ 0.489 µM) | 0.78 (≈ 0.979 µM) | 1.56 (≈ 1.96 µM) | – | – | 0.39 to 3.12 (≈ 0.489 to 3.92 µM)
12 | C=C[C@@](C)(/C=C/c1ccc(OCC(=O)N[C@@H](CCCCN)C(=O)OC)cc1)CCC=C(C)C [Compound 47] | 12.5 (≈ 27.4 µM) | 6.25 (≈ 13.7 µM) | 6.25 (≈ 13.7 µM) | 6.25 (≈ 13.7 µM) | – | – | –
13 | C=C[C@](C)(/C=C/c1ccc(OCC(=O)N[C@@H](CCCNC(=N)N)C(=O)N[C@@H](CCCNC(=N)N)C(N)=O)cc1)CCC=C(C)C [Compound 49] | 12.5 (≈ 20 µM) | 1.56 (≈ 2.49 µM) | 3.12 (≈ 4.99 µM) | 1.56 (≈ 2.49 µM) | – | – | 0.39 to 3.12 (≈ 0.623 to 4.99 µM)
14 | C=C[C@@](C)(/C=C\c1ccc(OCC(=O)N[C@@H](CCCNC(=N)N)C(=O)N[C@@H](Cc2c[nH]cn2)C(=O)OC)cc1)CCC=C(C)C [Compound 50] | 12.5 (≈ 20.1 µM) | 6.25 (≈ 10.1 µM) | 6.25 (≈ 10.1 µM) | 6.25 (≈ 10.1 µM) | – | – | –
15 | C=C[C@](C)(/C=C/c1ccc(OCC(=O)N[C@@H](CCCNC(=N)N)C(=O)NCCCN(CC)CC)cc1)CCC=C(C)C [Compound 52] | 25 (≈ 42.9 µM) | 1.56 (≈ 2.68 µM) | 0.78 (≈ 1.34 µM) | 0.78 (≈ 1.34 µM) | 0.39 to 3.12 (≈ 0.669 to 5.36 µM) | – | –
16 | C=C[C@](C)(/C=C/c1ccc(OCC(=O)N[C@H](CCCNC(=N)N)C(=O)N2CCN(c3ccc(N4CC(CNC(C)=O)OC4=O)cc3F)CC2)cc1)CCC=C(C)C (some centres unmarked) [Compound 53] | 6.25 (≈ 7.92 µM) | 0.78 (≈ 0.989 µM) | 0.78 (≈ 0.989 µM) | 0.78 (≈ 0.989 µM) | 0.39 to 3.12 (≈ 0.494 to 3.96 µM) | – | –
17 | C=C[C@](C)(/C=C/c1ccc(OCC(=O)N[C@@H](Cc2c[nH]cn2)C(=O)N[C@@H](Cc2c[nH]cn2)C(=O)OC)cc1)CCC=C(C)C [Compound 55] | > 100 | 12.5 (≈ 20.7 µM) | 12.5 (≈ 20.7 µM) | 12.5 (≈ 20.7 µM) | – | – | –
18 | C=C[C@](C)(/C=C/c1ccc(OCC(=O)N[C@@H](CCCNC(=N)N)C(=O)N[C@@H](CCCNC(=N)N)C(=O)N2CCN(c3ccc(N4C[C@H](CNC(C)=O)OC4=O)cc3F)CC2)cc1)CCC=C(C)C [Compound 59] | 1.56 (≈ 1.65 µM) | 0.78 (≈ 0.825 µM) | 0.78 (≈ 0.825 µM) | 0.78 (≈ 0.825 µM) | 0.39 to 3.12 (≈ 0.413 to 3.31 µM) | 1.56 to 3.12 (≈ 1.65 to 3.31 µM) | –
